Measurements: PubChem BioAssay (NCI)
Values joined by “and” are separate entries in the source; they are usually repeats but may differ in a detail not shown here. Identical values can stand only once.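 Following 48 hours of exposure in 96-well plates, responses at five concentrations were used to interpolate endpoints linearly. GI50 is the concentration that inhibits growth by half. TGI: total growth inhibition.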

What follows are compounds tested on SK-MEL-5 melanoma (assay: NCI-60 cell line screen, 48 h).

| Structure (SMILES) | TGI | GI50 |
| --- | --- | --- |
| Cc1cc(-c2nc3ccc(F)cc3s2)ccc1NC(=O)[C@H](C)N | 26.3 µM | – |
| Cc1cc(C)nc(NS(=O)(=O)c2ccc(NC(=O)c3ccc4nc5ccccc5c(Nc5ccc(S(N)(=O)=O)cc5)c4c3)cc2)n1 | > 100 µM | – |
| Nc1c(-c2ccc(Cl)c(Cl)c2)c2ccc([N+](=O)[O-])cc2c(=O)n1-c1nc2ccccc2s1 | 1.18 µM | – |
| NS(=O)(=O)c1nnc(NC(=O)Nc2ccc(Cl)c(Cl)c2)s1 | 30.8 µM | – |
| COC(=O)c1c(C)nc2c1cc(O)c1[nH]c(C)c(C)nc12 | > 100 µM | – |
| Cn1c2ccc3cc2c(=S)c2cc(ccc21)OCCOCCOCCOCCOCCOCCO3 | > 10 µM | – |
| O=[N+]([O-])c1cc(C=NC23CC4CC(CC(C4)C2)C3)ccc1Cl | 55.4 µM | – |
| CCCCCC1=CC(=O)C1(Cl)Cl | 24 µM | – |
| CC(=O)N(C(=O)CC(=O)N1N=C(c2ccccc2)C(N=Nc2ccccc2[N+](=O)[O-])C1=O)c1ccc(Cl)cc1 (stereo not given) | > 10 µM | – |
| CC(=O)N1C(C(=O)NC2CCCCC2)CSC1c1ccccc1 (stereo not given) | > 100 µM | – |
| COc1ncc(/C=C2\OC(=O)c3ccccc32)c(OC)n1 | 58.7 µM | – |
| CC(=O)Nn1c(=S)[nH]c2ccccc21 | > 100 µM | – |
| C[C@]12CCC3C4=C(CCC3C1CCC2=O)C(=O)[C@H]1O[C@H]1C4=O (stereo not given in full) | 23.9 µM | – |
| CCCCOC(=O)Nc1ccc(S(=O)(=O)Nc2ccccc2Cl)cc1 | 24.3 µM | – |
| CC(C)c1cc2c(cc1S(=O)(=O)O)[C@@]1(C)CCC[C@@](C)(C(=O)O)C1CC2 (stereo not given in full) | > 100 µM | – |
| N#CC(Cc1ccccc1)N(CCC1=CCCCC1)C(c1ccccc1)c1ccccc1 (stereo not given) | > 100 µM | – |
| C/C(=C\CBr)CCC(Br)C(C)(C)Br (stereo not given) | > 100 µM | – |
| C#CCn1c(=O)c2ccccc2n(CC#C)c1=O | > 10 µM | – |
| [N-]=[N+]=NC(c1ccccc1)(c1ccccc1)c1ccccc1 | 26.8 µM | – |
| CC1CN(C)c2ccccc2N=C1NN (stereo not given) | > 100 µM | – |
| CC(=O)c1c2c(c3ccccc3c1O)O[C@@H]1OCC[C@H]21 | > 100 µM | – |

| Structure (SMILES) | TGI | GI50 |
| --- | --- | --- |
| C[C@]12CC[C@H](O)CC1=CC[C@@H]1[C@@H]2CC[C@]2(C)C(=N/N)/C(=N\O)C[C@@H]12 | > 100 µM | – |
| Cc1ccc(NC(=O)c2ccc(OP(=O)(O)Nc3ccc(C)cc3)cc2)cc1 | > 100 µM | – |
| COc1ccc(CN2C(=O)/C(=C\c3cc(OC)c(OC)c(OC)c3)c3ccccc32)cc1 | 6.63 µM | 2.51 µM |
| Cc1ccnc(NS(=O)(=O)c2ccc(N=[N+]=[N-])cc2)n1 | > 100 µM | – |
| Cc1ccccc1C(=N)c1ccccc1Cc1cccc2ccccc12 | 34.5 µM | – |
| CCC(=O)NCC1CCCN2CCCCC12 (stereo not given) | > 100 µM | – |
| O=C(C1OC1c1ccc(Br)cc1O)C12CC3CC(CC(C3)C1)C2 (stereo not given) | 56.8 µM | – |
| Cc1ccc(N(Cc2ccccc2)Cc2ccccc2)cc1 | > 100 µM | – |
| CC(C)=CCC[C@@H](C)c1c(O)c(O)c(C)c2nccnc12 | 18.9 µM | – |
| S=C(N/N=C(/c1ccccc1)c1ccccn1)N(Cc1ccccn1)Cc1ccccn1 | 3.12 µM | – |
| Cc1ccc(-c2cc(-c3ccco3)c(C#N)c(=S)n2C2OC(CO)C(O)C(O)C2O)cc1 (stereo not given) | 18.2 µM and 30.8 µM | 5.75 µM and 14.9 µM |
| Cc1oc2c(cc(O)c3cc(O)ccc32)c2cccc1-2 | > 100 µM | – |
| NC(N)=Nc1ccc(CC(N)NCC(=O)O)cc1 (stereo not given) | > 25 µM | – |
| O=C(Cc1ccc(O)c(O)c1)NCc1c[nH]c2ccccc12 | > 100 µM | – |
| COc1nncc2[nH]c(-c3ccccc3)cc12 | > 100 µM | – |
| O=C(NCc1ccccc1)c1n[nH][nH]c1=O | > 100 µM | – |
| O=S(=O)(c1ccccc1)c1cccc2c1NCCC2 | 52 µM | – |
| COP(=O)(OC)C1=c2c(C)noc2=C2C=COC2C1=O (stereo not given) | > 100 µM | – |
| CCOC(=O)N1CCN(Cc2cc(=O)n3ccc(C)cc3n2)CC1 | > 100 µM | – |
| COc1cccc(C2SC(N)=Nc3c2c(C)nn3C(=O)c2ccccc2O)c1 (stereo not given) | > 10 µM | – |

Each compound was assayed on CCRF-CEM leukemia (assay: NCI-60 cell line screen, 48 h).

| Structure (SMILES) | TGI [µM] | GI50 [µM] |
| --- | --- | --- |
| CCOC(=O)c1c(CN2CCCC2)n(-c2ccccc2)c2cc(Br)c(O)cc12 | 34.8 | – |
| Nn1c(-c2ccccc2)n[nH]c1=O | > 100 | – |
| Cc1cc(-c2nc3ccc(F)cc3s2)ccc1NC(=O)[C@H](C)N | 6.23 | – |
| Cc1cc(C)nc(NS(=O)(=O)c2ccc(NC(=O)c3ccc4nc5ccccc5c(Nc5ccc(S(N)(=O)=O)cc5)c4c3)cc2)n1 | 78.3 | – |
| Nc1c(-c2ccc(Cl)c(Cl)c2)c2ccc([N+](=O)[O-])cc2c(=O)n1-c1nc2ccccc2s1 | 0.525 | – |
| NS(=O)(=O)c1nnc(NC(=O)Nc2ccc(Cl)c(Cl)c2)s1 | 37.3 | – |
| COC(=O)c1c(C)nc2c1cc(O)c1[nH]c(C)c(C)nc12 | > 100 | – |
| Cn1c2ccc3cc2c(=S)c2cc(ccc21)OCCOCCOCCOCCOCCOCCO3 | > 10 | – |
| O=[N+]([O-])c1cc(C=NC23CC4CC(CC(C4)C2)C3)ccc1Cl | 7.97 | – |
| CCCCCC1=CC(=O)C1(Cl)Cl | 6.15 | – |
| CC(=O)N(C(=O)CC(=O)N1N=C(c2ccccc2)C(N=Nc2ccccc2[N+](=O)[O-])C1=O)c1ccc(Cl)cc1 (stereo not given) | > 10 | – |
| CC(=O)N1C(C(=O)NC2CCCCC2)CSC1c1ccccc1 (stereo not given) | > 100 | – |
| COc1ncc(/C=C2\OC(=O)c3ccccc32)c(OC)n1 | > 100 | – |
| CC(=O)Nn1c(=S)[nH]c2ccccc21 | > 100 | – |
| C[C@]12CCC3C4=C(CCC3C1CCC2=O)C(=O)[C@H]1O[C@H]1C4=O (stereo not given in full) | 4.07 | – |
| CCCCOC(=O)Nc1ccc(S(=O)(=O)Nc2ccccc2Cl)cc1 | 57.3 | – |
| CC(C)c1cc2c(cc1S(=O)(=O)O)[C@@]1(C)CCC[C@@](C)(C(=O)O)C1CC2 (stereo not given in full) | > 100 | – |
| N#CC(Cc1ccccc1)N(CCC1=CCCCC1)C(c1ccccc1)c1ccccc1 (stereo not given) | > 100 | – |
| C/C(=C\CBr)CCC(Br)C(C)(C)Br (stereo not given) | > 100 | – |
| C#CCn1c(=O)c2ccccc2n(CC#C)c1=O | > 10 | – |
| [N-]=[N+]=NC(c1ccccc1)(c1ccccc1)c1ccccc1 | 55.4 | – |
| CC1CN(C)c2ccccc2N=C1NN (stereo not given) | > 100 | – |

| Structure (SMILES) | TGI [µM] | GI50 [µM] |
| --- | --- | --- |
| CC(=O)c1c2c(c3ccccc3c1O)O[C@@H]1OCC[C@H]21 | > 100 | – |
| C[C@]12CC[C@H](O)CC1=CC[C@@H]1[C@@H]2CC[C@]2(C)C(=N/N)/C(=N\O)C[C@@H]12 | > 100 | – |
| Cc1ccc(NC(=O)c2ccc(OP(=O)(O)Nc3ccc(C)cc3)cc2)cc1 | > 100 | – |
| COc1ccc(CN2C(=O)/C(=C\c3cc(OC)c(OC)c(OC)c3)c3ccccc32)cc1 | > 100 | 1.94 |
| Cc1ccnc(NS(=O)(=O)c2ccc(N=[N+]=[N-])cc2)n1 | > 49.7 | – |
| Cc1ccccc1C(=N)c1ccccc1Cc1cccc2ccccc12 | 42.7 | – |
| CCC(=O)NCC1CCCN2CCCCC12 (stereo not given) | > 100 | – |
| O=C(C1OC1c1ccc(Br)cc1O)C12CC3CC(CC(C3)C1)C2 (stereo not given) | > 100 | – |
| Cc1ccc(N(Cc2ccccc2)Cc2ccccc2)cc1 | 65.4 | – |
| CC(C)=CCC[C@@H](C)c1c(O)c(O)c(C)c2nccnc12 | > 36.5 | – |
| S=C(N/N=C(/c1ccccc1)c1ccccn1)N(Cc1ccccn1)Cc1ccccn1 | > 100 | – |
| Cc1ccc(-c2cc(-c3ccco3)c(C#N)c(=S)n2C2OC(CO)C(O)C(O)C2O)cc1 (stereo not given) | 99.1 | 23.2 |
| Cc1oc2c(cc(O)c3cc(O)ccc32)c2cccc1-2 | > 100 | – |
| NC(N)=Nc1ccc(CC(N)NCC(=O)O)cc1 (stereo not given) | > 25 | – |
| O=C(Cc1ccc(O)c(O)c1)NCc1c[nH]c2ccccc12 | 47.8 | – |
| COc1nncc2[nH]c(-c3ccccc3)cc12 | > 100 | – |
| O=C(NCc1ccccc1)c1n[nH][nH]c1=O | > 100 | – |
| O=S(=O)(c1ccccc1)c1cccc2c1NCCC2 | > 100 | – |
| COP(=O)(OC)C1=c2c(C)noc2=C2C=COC2C1=O (stereo not given) | > 100 | – |
| CCOC(=O)N1CCN(Cc2cc(=O)n3ccc(C)cc3n2)CC1 | > 100 | – |
| COc1cccc(C2SC(N)=Nc3c2c(C)nn3C(=O)c2ccccc2O)c1 (stereo not given) | > 10 | – |

These compounds were tested on MALME-3M melanoma (assay: NCI-60 cell line screen, 48 h).

| Structure (SMILES) | TGI [µM] |
| --- | --- |
| CCOC(=O)c1c(CN2CCCC2)n(-c2ccccc2)c2cc(Br)c(O)cc12 | 35.5 |
| Nn1c(-c2ccccc2)n[nH]c1=O | > 100 |
| Cc1cc(-c2nc3ccc(F)cc3s2)ccc1NC(=O)[C@H](C)N | 36.2 |
| Cc1cc(C)nc(NS(=O)(=O)c2ccc(NC(=O)c3ccc4nc5ccccc5c(Nc5ccc(S(N)(=O)=O)cc5)c4c3)cc2)n1 | > 100 |
| Nc1c(-c2ccc(Cl)c(Cl)c2)c2ccc([N+](=O)[O-])cc2c(=O)n1-c1nc2ccccc2s1 | 9.72 |
| NS(=O)(=O)c1nnc(NC(=O)Nc2ccc(Cl)c(Cl)c2)s1 | 39.9 |
| COC(=O)c1c(C)nc2c1cc(O)c1[nH]c(C)c(C)nc12 | > 100 |
| Cn1c2ccc3cc2c(=S)c2cc(ccc21)OCCOCCOCCOCCOCCOCCO3 | > 10 |
| O=[N+]([O-])c1cc(C=NC23CC4CC(CC(C4)C2)C3)ccc1Cl | 42.5 |
| CCCCCC1=CC(=O)C1(Cl)Cl | 27.4 |
| CC(=O)N(C(=O)CC(=O)N1N=C(c2ccccc2)C(N=Nc2ccccc2[N+](=O)[O-])C1=O)c1ccc(Cl)cc1 (stereo not given) | > 10 |
| CC(=O)N1C(C(=O)NC2CCCCC2)CSC1c1ccccc1 (stereo not given) | > 100 |
| COc1ncc(/C=C2\OC(=O)c3ccccc32)c(OC)n1 | > 100 |
| CC(=O)Nn1c(=S)[nH]c2ccccc21 | > 100 |
| C[C@]12CCC3C4=C(CCC3C1CCC2=O)C(=O)[C@H]1O[C@H]1C4=O (stereo not given in full) | 37.5 |
| CCCCOC(=O)Nc1ccc(S(=O)(=O)Nc2ccccc2Cl)cc1 | 52.5 |
| CC(C)c1cc2c(cc1S(=O)(=O)O)[C@@]1(C)CCC[C@@](C)(C(=O)O)C1CC2 (stereo not given in full) | > 100 |
| N#CC(Cc1ccccc1)N(CCC1=CCCCC1)C(c1ccccc1)c1ccccc1 (stereo not given) | > 100 |
| C/C(=C\CBr)CCC(Br)C(C)(C)Br (stereo not given) | > 100 |
| C#CCn1c(=O)c2ccccc2n(CC#C)c1=O | > 10 |
| [N-]=[N+]=NC(c1ccccc1)(c1ccccc1)c1ccccc1 | 29.5 |
| CC1CN(C)c2ccccc2N=C1NN (stereo not given) | > 100 |
